Measured values reported in US20240101557A1, “FUSED TRICYCLIC COMPOUNDS AS INHIBITORS OF KRAS G12V MUTANTS” (INCYTE CORPORATION, priority 2022, published 2024).
pIC50: −log10 of the molar value.

Key:
KRAS G12D = KRAS G12D (Homo sapiens, UniProt P01116, G12D); assay: GDP-GTP exchange assay (bodipy-GDP for GppNHp, with SOS1), KRAS G12D; format: biochemical; settings: bodipy-loaded KRAS G12D 2.5 nM, 4 h pre-incubation, 2 h after GppNHp/SOS1; read-out: G12D_exchange
Protocol: (§1) The inhibitor potency of the exemplified compounds was determined in a fluorescence based guanine nucleotide exchange assay, which measures the exchange of bodipy-GDP (fluorescently labeled GDP) for GppNHp (Non-hydrolyzable GTP analog) to generate the active state of KRAS in the presence of SOS1 (guanine nucleotide exchange factor). Inhibitors were serially diluted in DMSO and a volume of 0.1 μL was transferred to the wells of a black low volume 384-well plate. 5 μL/well volume of bodipy-loaded KRAS G12D diluted to 2.5 nM in assay buffer (25 mM Hepes pH 7.5, 50 mM NaCl, 10 mM MgCl2 and 0.01% Brij-35) was added to the plate and pre-incubated with inhibitor for 4 h at ambient temperature. Appropriate controls (enzyme with no inhibitor or with a G12D inhibitor) were included on the plate. The exchange was initiated by the addition of a 5 μL/well volume containing 1 mM GppNHp and 300 nM SOS1 in assay buffer. The 10 μL/well reaction concentration of the bodipy-loaded KRAS G12D, GppNHp, and SOS1 were 2.5 nM, 500 uM, and 150 nM, respectively. The reaction plates were incubated at ambient temperature for 2 h, a time estimated for complete GDP-GTP exchange in the absence of inhibitor. For the KRAS G12V mutant, similar guanine nucleotide exchange assays were used with 2.5 nM as final concentration for the bodipy loaded KRAS proteins and 3 h incubation after adding GppNHp-SOS1 mixture. A cyclic peptide described to selectively bind G12D mutant (Sakamoto et al., BBRC 484.3 (2017), 605-611) or internal compounds with confirmed binding were used as positive controls in the assay plates. Fluorescence intensities were measured on a PheraStar plate reader instrument (BMG Labtech) with excitation at 485 nm and emission at 520 nm.
(§2) Either GraphPad prism or Genedata Screener SmartFit was used to analyze the data. The IC50 values were derived by fitting the data to a four parameter logistic equation producing a sigmoidal dose-response curve with a variable Hill coefficient.
(§3) The symbol “†” indicates IC50≤100 nM, “††” indicates IC50>100 nM but ≤1 μM; and “†††” indicates IC50 is >1 μM but ≤5 μM, “††††” indicates IC50 is >5 μM but ≤10 μM. “NA” indicates IC50 not available.

KRAS G12V mutant = KRAS G12V mutant (Homo sapiens, UniProt P01116, G12V); assay: GDP-GTP exchange assay (bodipy-GDP for GppNHp, with SOS1), KRAS G12V; format: biochemical; settings: bodipy-loaded KRAS G12V 2.5 nM, 3 h incubation after GppNHp-SOS1; read-out: G12V_ exchange
Protocol: as §1, §2, §3

KRAS G12V = assay: G12V_cell (cellular assay on KRAS G12V cells, method not named in Table 1); format: cell-based; settings: cell line and readout not stated
Protocol: MIA PaCa-2 (KRAS G12C; ATCC® CRL-1420), NCI-H358 (KRAS G12C; ATCC® CRL-5807), A427 (KRAS G12D; ATCC® HTB53), HPAFII (KRAS G12D; ATCC® CRL-1997), YAPC (KRAS G12V; DSMZ ACC382), SW480 (KRAS G12V; ATCC® CRL-228) and NCI-H838 (KRAS WT; ATCC® CRL-5844) cells are cultured in RPMI 1640 media supplemented with 10% FBS (Gibco/Life Technologies). Eight hundred cells per well in RPMI 1640 media supplemented with 2% FBS are seeded into white, clear bottomed 384-well Costar tissue culture plates containing 50 nL dots of test compounds (final concentration is a 1:500 dilution, with a final concentration in 0.2% DMSO). Plates are incubated for 3 days at […], 5% CO2. At the end of the assay, 25 ul/well of CellTiter-Glo reagent (Promega) is added. Luminescence is read after 15 min. with a PHERAstar (BMG). Data are analyzed in Genedata Screener using SmartFit for IC50 values.
MIA PaCa-2 (KRAS G12C; ATCC® CRL-1420), NCI-H358 (KRAS G12C; ATCC® CRL-5807), A427 (KRAS G12D; ATCC® HTB53), HPAFII (KRAS G12D; ATCC® CRL-1997), YAPC (KRAS G12V; DSMZ ACC382), SW480 (KRAS G12V; ATCC® CRL-228) and NCI-H838 (KRAS WT; ATCC® CRL-5844) cells are purchased from ATCC and maintained in RPMI 1640 media supplemented with 10% FBS (Gibco/Life Technologies). The cells are plated at 5000 cells per well (8 uL) into Greiner 384-well low volume, flat-bottom, and tissue culture treated white plates and incubated overnight at […], 5% CO2. The next morning, test compound stock solutions are diluted in media at 3× the final concentration and 4 uL are added to the cells, with a final concentration of 0.1% of DMSO. The cells are incubated with the test compounds for 4 h (G12C and G12V) or 2 hrs (G12D) at 37° C., 5% CO2. Four uL of 4× lysis buffer with blocking reagent (Cisbio) are added to each well and plates are rotated gently (300 rpm) for 30 min. at r.t. Four uL per well of Cisbio anti Phospho-ERK ½ d2 is mixed with anti Phospho-ERK ½ Cryptate (1:1), and added to each well, incubated overnight in the dark at r.t. Plates are read on the Pherastar plate reader at 665 nm and 620 nm wavelengths. Data are analyzed in Genedata Screener using SmartFit for IC50 values.

Measured: pIC50

Sequence of KRAS G12V mutant (P01116 1-188 isoform P01116-2 G12V): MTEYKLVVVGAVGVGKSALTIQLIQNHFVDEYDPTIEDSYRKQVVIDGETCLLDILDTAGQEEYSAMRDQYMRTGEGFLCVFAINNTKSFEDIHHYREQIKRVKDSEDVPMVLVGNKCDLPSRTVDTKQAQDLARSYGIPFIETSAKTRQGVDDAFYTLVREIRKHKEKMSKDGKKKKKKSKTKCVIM
Sequence of KRAS G12D (P01116 1-188 isoform P01116-2 G12D): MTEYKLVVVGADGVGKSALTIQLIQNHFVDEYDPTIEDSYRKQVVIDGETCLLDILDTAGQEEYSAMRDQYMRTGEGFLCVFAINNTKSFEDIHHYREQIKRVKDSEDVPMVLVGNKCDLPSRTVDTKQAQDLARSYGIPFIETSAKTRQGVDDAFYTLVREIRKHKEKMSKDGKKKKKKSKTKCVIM

C[C@H](Oc1nc2c(F)c(-c3cccc(Cl)c3Cl)c(CCC#N)cc2c2c1cc([C@H]1C[C@H](F)CN1C(=O)C1CC1)n2[C@H]1[C@H]2CN[C@@H]1C2)[C@@H]1CCCN1C [Example 10, 3-(1-((1R,4R,5S)-2-Azabicyclo[2.1.1]hexan-5-yl)-2-((2R,4S)-1-(cyclopropanecarbonyl)-4-fluoropyrrolidin-2-yl)-7-(2,3-dichlorophenyl)-6-fluoro-4-((S)-1-((S)-1-methylpyrrolidin-2-yl)ethoxy)-1H-pyrrolo[3,2-c]quinolin-8-yl)propanenitrile]
≥ 7.00: all assays above

C[C@H](Oc1nc2c(F)c(-c3cccc4ccc(F)cc34)c(CCC#N)cc2c2c1cc(-c1cnn(C)c1C(=O)N(C)C)n2[C@H]1[C@H]2CN[C@@H]1C2)[C@@H]1CCCN1C [Example 2, 4-(1-((1R,4R,5S)-2-Azabicyclo[2.1.1]hexan-5-yl)-8-(2-cyanoethyl)-6-fluoro-7-(7-fluoronaphthalen-1-yl)-4-((S)-1-((S)-1-methylpyrrolidin-2-yl)ethoxy)-1H-pyrrolo[3,2-c]quinolin-2-yl)-N,N,1-trimethyl-1H-pyrazole-5-carboxamide]
≥ 7.00: all assays above

COC(=O)N1C[C@@H](Oc2ccccn2)C[C@@H]1c1cc2c(O[C@@H](C)[C@@H]3CCCN3C)nc3c(F)c(-c4cccc(Cl)c4Cl)c(CCC#N)cc3c2n1[C@H]1[C@H]2CN[C@@H]1C2 [Example 6, Methyl (2R,4S)-2-(1-((1R,4R,5S)-2-azabicyclo[2.1.1]hexan-5-yl)-8-(2-cyanoethyl)-7-(2,3-dichlorophenyl)-6-fluoro-4-((S)-1-((S)-1-methylpyrrolidin-2-yl)ethoxy)-1H-pyrrolo[3,2-c]quinolin-2-yl)-4-(pyridin-2-yloxy)pyrrolidine-1-carboxylate]
≥ 7.00: all assays above

CC(=O)N1CCC[C@@H]1c1cc2c(O[C@@H](C)[C@@H]3CCCN3C)nc3c(F)c(-c4cccc(Cl)c4Cl)c(CCC#N)cc3c2n1[C@H]1[C@H]2CN[C@@H]1C2 [Example 1, 3-(2-((R)-1-Acetylpyrrolidin-2-yl)-1-((1R,4R,5S)-2-azabicyclo[2.1.1]hexan-5-yl)-7-(2,3-dichlorophenyl)-6-fluoro-4-((S)-1-((S)-1-methylpyrrolidin-2-yl)ethoxy)-1H-pyrrolo[3,2-c]quinolin-8-yl)propanenitrile]
≥ 7.00: all assays above

CC(=O)N1CCC[C@@H]1c1c(Cl)c2c(O[C@@H](C)[C@@H]3CCCN3C)nc3c(F)c(-c4cccc(Cl)c4Cl)c(CCC#N)cc3c2n1[C@H]1[C@H]2CN[C@@H]1C2 [Example 3, 3-(2-((R)-1-Acetylpyrrolidin-2-yl)-1-((1R,4R,5S)-2-azabicyclo[2.1.1]hexan-5-yl)-3-chloro-7-(2,3-dichlorophenyl)-6-fluoro-4-((S)-1-((S)-1-methylpyrrolidin-2-yl)ethoxy)-1H-pyrrolo[3,2-c]quinolin-8-yl)propanenitrile]
≥ 7.00: all assays above

CC(=O)N1CCC[C@@H]1c1cc2c(O[C@@H](C)[C@@H]3CCCN3C)nc3c(F)c(-c4cccc5c4C(C#N)CCC5)c(C)cc3c2n1[C@H]1[C@H]2CN[C@@H]1C2 (stereo partly drawn) [Example 4, 8-(2-((R)-1-Acetylpyrrolidin-2-yl)-1-((1R,4R,5S)-2-azabicyclo[2.1.1]hexan-5-yl)-6-fluoro-8-methyl-4-((S)-1-((S)-1-methylpyrrolidin-2-yl)ethoxy)-1H-pyrrolo[3,2-c]quinolin-7-yl)-1,2,3,4-tetrahydronaphthalene-1-carbonitrile]
≥ 7.00: all assays above

C[C@H](Oc1nc2c(F)c(-c3cccc(Cl)c3Cl)c(CCC#N)cc2c2c1cc([C@H]1C[C@H](Oc3ncccc3F)CN1C(=O)C1CC1)n2[C@H]1[C@H]2CN[C@@H]1C2)[C@@H]1CCCN1C [Example 9, 3-(1-((1R,4R,5S)-2-Azabicyclo[2.1.1]hexan-5-yl)-2-((2R,4S)-1-(cyclopropanecarbonyl)-4-((3-fluoropyridin-2-yl)oxy)pyrrolidin-2-yl)-7-(2,3-dichlorophenyl)-6-fluoro-4-((S)-1-((S)-1-methylpyrrolidin-2-yl)ethoxy)-1H-pyrrolo[3,2-c]quinolin-8-yl)propanenitrile]
≥ 7.00: all assays above

CC(=O)N1CCC[C@@H]1c1cc2c(O[C@@H](C)[C@@H]3CCCN3C)nc3c(F)c(-c4cccc5ncc(F)cc45)c(CCC#N)cc3c2n1[C@H]1[C@H]2CN[C@@H]1C2 [Example 5, 3-(2-((R)-1-Acetylpyrrolidin-2-yl)-1-((1R,4R,5S)-2-azabicyclo[2.1.1]hexan-5-yl)-6-fluoro-7-(3-fluoroquinolin-5-yl)-4-((S)-1-((S)-1-methylpyrrolidin-2-yl)ethoxy)-1H-pyrrolo[3,2-c]quinolin-8-yl)propanenitrile]
≥ 7.00: all assays above

CC(=O)N1[C@@H](c2cc3c(O[C@@H](C)[C@@H]4CCCN4C)nc4c(F)c(-c5cccc6c5C(C#N)CCC6)c(C)cc4c3n2[C@H]2[C@H]3CN[C@@H]2C3)C[C@@H]2C[C@@H]21 (stereo partly drawn) [Example 7, 8-(2-((1S,3R,5S)-2-Acetyl-2-azabicyclo[3.1.0]hexan-3-yl)-1-((1R,4R,5S)-2-azabicyclo[2.1.1]hexan-5-yl)-6-fluoro-8-methyl-4-((S)-1-((S)-1-methylpyrrolidin-2-yl)ethoxy)-1H-pyrrolo[3,2-c]quinolin-7-yl)-1,2,3,4-tetrahydronaphthalene-1-carbonitrile]
≥ 7.00: all assays above

C[C@H](Oc1nc2c(F)c(-c3cccc(Cl)c3Cl)c(CCC#N)cc2c2c1cc([C@H]1C[C@H](OC(F)F)CN1C(=O)C1CC1)n2[C@H]1[C@H]2CN[C@@H]1C2)[C@@H]1CCCN1C [Example 8, 3-(1-((1R,4R,5S)-2-Azabicyclo[2.1.1]hexan-5-yl)-2-((2R,4S)-1-(cyclopropanecarbonyl)-4-(difluoromethoxy)pyrrolidin-2-yl)-7-(2,3-dichlorophenyl)-6-fluoro-4-((S)-1-((S)-1-methylpyrrolidin-2-yl)ethoxy)-1H-pyrrolo[3,2-c]quinolin-8-yl)propanenitrile]
≥ 7.00: all assays above
